# Laboratory results taken from ChEMBL document CHEMBL4229346, “New insights in the structure-activity relationships of 2-phenylamino-substituted benzothiopyrano[4,3-d]pyrimidines as kinase inhibitors” (Eur J Med Chem, 2018).
# pIC50: −log10 of the molar value.
# How the values were obtained:
# [1] = Growth inhibition of HUVEC after 72 hrs by trypan blue assay; type: cell-based; conditions: human, HUVEC cells
# HeLa = assay: Growth inhibition of human HeLa cells after 72 hrs by trypan blue assay; type: functional
# A-431 = assay: Growth inhibition of human A431 cells after 72 hrs by trypan blue assay; type: functional; conditions: A-431, 72 h
# MSTO-211H = assay: Growth inhibition of human MSTO-211H cells after 72 hrs by trypan blue assay; type: functional
# [2] = biological target: Vascular endothelial growth factor receptor 2 (Homo sapiens, UniProt P35968); assay: Inhibition of recombinant human His-tagged KDR cytoplasmic domain (789 to 1356 residues) expressed in baculovirus expression system using Z'-LYTE-Tyr1 as substrate measured after 1 hr by Z'-LYTE assay
# Vascular endothelial growth factor receptor 2, sequence (P35968 whole entry, the tested form may be a part): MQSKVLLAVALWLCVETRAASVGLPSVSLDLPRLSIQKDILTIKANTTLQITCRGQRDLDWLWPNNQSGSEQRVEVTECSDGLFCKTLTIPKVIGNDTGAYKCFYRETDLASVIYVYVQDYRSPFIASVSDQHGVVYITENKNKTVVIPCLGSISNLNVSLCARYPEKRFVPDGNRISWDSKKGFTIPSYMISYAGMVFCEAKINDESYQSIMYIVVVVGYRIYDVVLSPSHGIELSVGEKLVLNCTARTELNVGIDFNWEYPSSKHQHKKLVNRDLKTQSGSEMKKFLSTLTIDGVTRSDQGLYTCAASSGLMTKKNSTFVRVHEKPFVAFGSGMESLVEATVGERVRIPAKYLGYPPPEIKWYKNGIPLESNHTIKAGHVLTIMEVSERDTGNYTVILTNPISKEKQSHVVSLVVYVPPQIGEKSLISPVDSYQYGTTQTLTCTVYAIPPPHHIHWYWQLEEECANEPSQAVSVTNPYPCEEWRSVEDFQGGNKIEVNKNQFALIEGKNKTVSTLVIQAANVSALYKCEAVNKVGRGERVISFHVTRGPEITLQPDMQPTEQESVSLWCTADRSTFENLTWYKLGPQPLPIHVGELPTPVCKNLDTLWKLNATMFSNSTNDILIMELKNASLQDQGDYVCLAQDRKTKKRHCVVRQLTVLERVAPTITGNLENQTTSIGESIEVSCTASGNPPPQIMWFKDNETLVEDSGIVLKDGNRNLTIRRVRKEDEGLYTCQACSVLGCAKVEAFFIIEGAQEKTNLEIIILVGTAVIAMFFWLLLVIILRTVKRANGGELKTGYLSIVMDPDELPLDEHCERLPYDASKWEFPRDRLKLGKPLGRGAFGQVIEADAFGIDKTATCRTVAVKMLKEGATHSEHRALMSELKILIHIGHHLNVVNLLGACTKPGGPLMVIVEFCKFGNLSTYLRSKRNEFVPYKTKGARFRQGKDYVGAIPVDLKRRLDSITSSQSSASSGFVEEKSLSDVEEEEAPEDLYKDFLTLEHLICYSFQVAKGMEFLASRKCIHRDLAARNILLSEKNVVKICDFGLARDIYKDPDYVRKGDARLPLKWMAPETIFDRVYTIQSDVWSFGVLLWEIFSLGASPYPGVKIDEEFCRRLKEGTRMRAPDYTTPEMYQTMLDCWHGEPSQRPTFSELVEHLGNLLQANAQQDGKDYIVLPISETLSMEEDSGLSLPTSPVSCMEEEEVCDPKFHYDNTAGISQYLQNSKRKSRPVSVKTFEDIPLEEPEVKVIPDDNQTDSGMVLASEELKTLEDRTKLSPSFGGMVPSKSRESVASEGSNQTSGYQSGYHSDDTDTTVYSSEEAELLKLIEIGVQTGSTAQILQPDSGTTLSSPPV
# [3] = biological target: Proto-oncogene tyrosine-protein kinase Src (Homo sapiens) (UniProt P12931); assay: Inhibition of recombinant human Src at 10^-5 M using Ulight-Poly GAT[EAY(1:1:1)]n as substrate measured after 10 mins by LANCE assay relative to control
# [4] = biological target: RAF proto-oncogene serine/threonine-protein kinase (Homo sapiens) (UniProt P04049); assay: Inhibition of recombinant human RAF1 at 10^-5 M relative to control
# RAF proto-oncogene serine/threonine-protein kinase (Homo sapiens), sequence (P04049 whole entry): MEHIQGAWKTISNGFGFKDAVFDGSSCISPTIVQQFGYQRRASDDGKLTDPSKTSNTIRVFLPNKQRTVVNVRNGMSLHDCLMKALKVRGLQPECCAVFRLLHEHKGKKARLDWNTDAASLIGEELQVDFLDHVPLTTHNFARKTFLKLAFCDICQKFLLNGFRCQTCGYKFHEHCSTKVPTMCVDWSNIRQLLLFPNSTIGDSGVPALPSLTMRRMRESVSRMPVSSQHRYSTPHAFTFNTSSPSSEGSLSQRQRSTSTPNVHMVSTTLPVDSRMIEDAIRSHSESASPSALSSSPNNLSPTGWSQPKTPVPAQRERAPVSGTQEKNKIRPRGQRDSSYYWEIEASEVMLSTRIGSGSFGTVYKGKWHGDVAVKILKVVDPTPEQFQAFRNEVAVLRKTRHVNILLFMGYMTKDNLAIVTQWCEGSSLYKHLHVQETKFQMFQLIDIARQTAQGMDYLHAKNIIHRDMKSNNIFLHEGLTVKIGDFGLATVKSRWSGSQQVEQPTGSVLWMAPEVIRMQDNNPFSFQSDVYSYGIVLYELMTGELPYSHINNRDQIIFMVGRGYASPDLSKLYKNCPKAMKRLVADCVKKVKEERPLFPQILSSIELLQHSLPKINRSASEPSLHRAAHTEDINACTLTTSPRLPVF
# [5] = biological target: T1, Aurora kinase A (Homo sapiens) (UniProt O14965); assay: Inhibition of recombinant human Aurora-A at 10^-5 M using Ulight-RRRSLLE as substrate measured after 15 mins by LANCE assay relative to control
# T1 sequence (whole entry): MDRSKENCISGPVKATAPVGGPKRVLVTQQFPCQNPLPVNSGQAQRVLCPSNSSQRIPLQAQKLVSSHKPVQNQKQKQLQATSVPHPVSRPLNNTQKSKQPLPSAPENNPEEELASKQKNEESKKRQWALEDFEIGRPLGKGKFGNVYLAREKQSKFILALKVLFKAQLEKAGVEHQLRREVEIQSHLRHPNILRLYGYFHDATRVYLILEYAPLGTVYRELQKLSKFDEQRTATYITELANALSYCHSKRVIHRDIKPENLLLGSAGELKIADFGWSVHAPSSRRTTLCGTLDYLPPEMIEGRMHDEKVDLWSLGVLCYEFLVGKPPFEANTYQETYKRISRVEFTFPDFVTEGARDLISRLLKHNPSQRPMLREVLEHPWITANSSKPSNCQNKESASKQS
# [6] = biological target: Cyclin-dependent kinase 1/cyclin B1 (Homo sapiens) (UniProt P06493+P14635); assay: Inhibition of recombinant human CDK1/Cyclin B at 10^-5 M using Ulight-CFFKNIVTPRTPPPSQGK-amide as substrate measured after 15 mins by LANCE assay relative to control; type: protein-complex assay
# Cyclin-dependent kinase 1/cyclin B1 (Homo sapiens), sequence (P06493 whole entry, looked up): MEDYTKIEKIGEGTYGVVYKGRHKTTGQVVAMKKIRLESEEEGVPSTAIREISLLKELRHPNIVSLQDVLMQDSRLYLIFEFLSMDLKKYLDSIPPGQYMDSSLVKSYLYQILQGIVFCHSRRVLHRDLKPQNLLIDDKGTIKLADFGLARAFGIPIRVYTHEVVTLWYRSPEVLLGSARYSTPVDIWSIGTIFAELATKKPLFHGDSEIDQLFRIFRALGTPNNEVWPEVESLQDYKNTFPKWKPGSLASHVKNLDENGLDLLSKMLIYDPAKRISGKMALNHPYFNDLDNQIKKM
# Cyclin-dependent kinase 1/cyclin B1 (Homo sapiens), sequence (P14635 whole entry, looked up): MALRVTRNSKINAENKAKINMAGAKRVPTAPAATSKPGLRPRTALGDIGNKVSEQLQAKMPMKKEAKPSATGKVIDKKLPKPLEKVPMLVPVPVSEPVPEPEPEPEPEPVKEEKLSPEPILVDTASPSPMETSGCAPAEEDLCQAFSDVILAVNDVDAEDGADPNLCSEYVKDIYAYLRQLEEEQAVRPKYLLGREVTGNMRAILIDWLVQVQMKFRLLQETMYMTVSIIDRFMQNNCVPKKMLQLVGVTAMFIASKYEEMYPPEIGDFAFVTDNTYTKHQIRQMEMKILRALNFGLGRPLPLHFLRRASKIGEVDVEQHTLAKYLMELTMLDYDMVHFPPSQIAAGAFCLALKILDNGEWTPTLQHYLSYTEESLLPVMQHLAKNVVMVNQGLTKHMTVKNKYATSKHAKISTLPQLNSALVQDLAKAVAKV
# [7] = biological target: Epidermal growth factor receptor (Homo sapiens) (UniProt P00533); assay: Inhibition of recombinant human EGFR at 10^-5 M using Ulight-CAGAGAIETDKEYYTVKD as substrate measured after 15 mins by LANCE assay relative to control
# Epidermal growth factor receptor (Homo sapiens), sequence (P00533 whole entry): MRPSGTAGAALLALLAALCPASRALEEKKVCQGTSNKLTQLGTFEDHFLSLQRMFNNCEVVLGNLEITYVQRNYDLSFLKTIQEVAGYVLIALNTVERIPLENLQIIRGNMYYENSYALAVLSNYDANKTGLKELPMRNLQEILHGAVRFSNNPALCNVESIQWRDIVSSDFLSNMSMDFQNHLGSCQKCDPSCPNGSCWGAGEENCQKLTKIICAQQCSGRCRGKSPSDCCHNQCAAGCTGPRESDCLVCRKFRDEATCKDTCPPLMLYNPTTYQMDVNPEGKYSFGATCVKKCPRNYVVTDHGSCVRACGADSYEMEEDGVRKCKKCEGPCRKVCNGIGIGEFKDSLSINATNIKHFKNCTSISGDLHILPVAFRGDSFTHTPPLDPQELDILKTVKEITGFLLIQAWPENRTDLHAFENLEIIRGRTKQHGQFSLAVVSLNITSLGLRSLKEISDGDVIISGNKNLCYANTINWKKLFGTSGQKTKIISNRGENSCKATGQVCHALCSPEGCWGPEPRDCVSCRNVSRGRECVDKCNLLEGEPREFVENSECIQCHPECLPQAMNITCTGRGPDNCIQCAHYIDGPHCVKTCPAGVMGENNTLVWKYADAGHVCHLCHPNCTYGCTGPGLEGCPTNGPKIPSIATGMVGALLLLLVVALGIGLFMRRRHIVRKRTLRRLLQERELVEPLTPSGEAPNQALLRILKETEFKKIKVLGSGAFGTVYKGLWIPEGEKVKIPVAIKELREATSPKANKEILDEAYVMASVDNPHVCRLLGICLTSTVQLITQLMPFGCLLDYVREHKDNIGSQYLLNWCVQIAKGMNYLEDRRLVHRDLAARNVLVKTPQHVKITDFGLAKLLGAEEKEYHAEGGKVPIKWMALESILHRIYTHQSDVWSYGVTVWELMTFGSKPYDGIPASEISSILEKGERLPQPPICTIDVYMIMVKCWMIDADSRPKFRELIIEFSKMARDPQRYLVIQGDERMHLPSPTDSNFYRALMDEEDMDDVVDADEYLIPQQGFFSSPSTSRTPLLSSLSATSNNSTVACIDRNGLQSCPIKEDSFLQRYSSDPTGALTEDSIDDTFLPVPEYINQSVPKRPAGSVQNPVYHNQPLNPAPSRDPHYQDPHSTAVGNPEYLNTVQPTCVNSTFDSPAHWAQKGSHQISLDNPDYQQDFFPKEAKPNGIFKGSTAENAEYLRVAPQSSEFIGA
# [8] = biological target: Platelet-derived growth factor receptor beta (Homo sapiens) (UniProt P09619); assay: Inhibition of recombinant human PDGFRbeta at 10^-5 M using Ulight-Poly GAT[EAY(1:1:1)]n as substrate measured after 30 mins by LANCE assay relative to control
# Platelet-derived growth factor receptor beta (Homo sapiens), sequence (P09619 whole entry): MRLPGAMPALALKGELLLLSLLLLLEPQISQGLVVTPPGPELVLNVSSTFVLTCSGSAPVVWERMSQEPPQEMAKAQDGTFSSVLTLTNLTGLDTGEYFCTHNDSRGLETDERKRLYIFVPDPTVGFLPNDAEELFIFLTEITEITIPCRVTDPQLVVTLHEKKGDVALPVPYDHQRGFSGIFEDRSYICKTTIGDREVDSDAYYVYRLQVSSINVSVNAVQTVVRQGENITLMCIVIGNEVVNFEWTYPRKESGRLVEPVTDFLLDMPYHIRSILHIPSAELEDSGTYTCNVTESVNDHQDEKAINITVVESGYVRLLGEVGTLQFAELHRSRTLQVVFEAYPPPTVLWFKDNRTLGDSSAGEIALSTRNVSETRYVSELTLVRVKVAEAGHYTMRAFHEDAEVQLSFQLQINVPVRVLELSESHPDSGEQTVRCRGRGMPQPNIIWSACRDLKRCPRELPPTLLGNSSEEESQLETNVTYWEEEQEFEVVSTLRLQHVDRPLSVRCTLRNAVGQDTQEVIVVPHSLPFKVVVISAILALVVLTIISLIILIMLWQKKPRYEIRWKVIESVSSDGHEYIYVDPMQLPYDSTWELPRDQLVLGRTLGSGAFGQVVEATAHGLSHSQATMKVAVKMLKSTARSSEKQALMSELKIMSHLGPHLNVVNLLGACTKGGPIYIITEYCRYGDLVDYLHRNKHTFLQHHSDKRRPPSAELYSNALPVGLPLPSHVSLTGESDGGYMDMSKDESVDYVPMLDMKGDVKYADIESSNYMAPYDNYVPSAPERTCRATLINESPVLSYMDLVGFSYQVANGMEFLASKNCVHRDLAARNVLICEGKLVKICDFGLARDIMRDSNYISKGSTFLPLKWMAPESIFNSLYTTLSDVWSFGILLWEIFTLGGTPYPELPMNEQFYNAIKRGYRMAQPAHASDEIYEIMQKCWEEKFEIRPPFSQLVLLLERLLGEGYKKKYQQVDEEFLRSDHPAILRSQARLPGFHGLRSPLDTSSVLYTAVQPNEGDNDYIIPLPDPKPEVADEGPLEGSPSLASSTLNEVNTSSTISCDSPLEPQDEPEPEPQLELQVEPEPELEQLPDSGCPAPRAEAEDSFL
SMILES,GI50 at 72 h [1],GI50 (HeLa),GI50 (A-431),GI50 (MSTO-211H),pIC50 [2],inhibition [3],inhibition [4],inhibition [5],inhibition [6],inhibition [7],inhibition [8]
COc1ccc(Nc2ncc3c(n2)-c2ccc(Cl)cc2SC3)cc1OC,2.53 µM,3.42 µM,2.23 µM,4.4 µM,–,–,–,–,–,–,–
COc1ccc2c(c1)SCc1cnc(Nc3cccc(C(F)(F)F)c3)nc1-2,4.55 µM,6.02 µM,6.24 µM,9.04 µM,–,–,–,–,–,–,–
Clc1cccc(Nc2ncc3c(n2)-c2ccc(Cl)cc2SC3)c1,16.5 µM,> 20 µM,> 20 µM,7.78 µM,–,–,–,–,–,–,–
Fc1cccc(Nc2ncc3c(n2)-c2ccccc2SC3)c1,4.51 µM,14 µM,9.76 µM,2.06 µM,–,–,–,–,–,–,–
Clc1cccc(Nc2ncc3c(n2)-c2ccccc2SC3)c1,7.13 µM,> 20 µM,10.4 µM,6.1 µM,–,–,–,–,–,–,–
COc1ccc2c(c1)SCc1cnc(Nc3cccc(F)c3)nc1-2,11.5 µM,10.3 µM,15.5 µM,13 µM,–,–,–,–,–,–,–
Clc1ccc2c(c1)SCc1cnc(Nc3cccc(Br)c3)nc1-2,7.11 µM,> 20 µM,17 µM,8.5 µM,–,–,–,–,–,–,–
COc1ccc2c(c1)SCc1cnc(Nc3cc(OC)c(OC)c(OC)c3)nc1-2,3.71 µM,0.63 µM,1.75 µM,0.92 µM,–,–,–,–,–,–,–
FC(F)(F)c1cccc(Nc2ncc3c(n2)-c2ccc(Cl)cc2SC3)c1,10.5 µM,> 20 µM,10 µM,3.18 µM,–,–,–,–,–,–,–
COc1ccc(Nc2ncc3c(n2)-c2ccccc2SC3)cc1OC,1.5 µM,1.5 µM,2.32 µM,1.63 µM,6.96,53%,6.1%,88.6%,47.4%,6.5%,39.9%
COc1cccc(Nc2ncc3c(n2)-c2ccc(Cl)cc2SC3)c1,14.2 µM,> 20 µM,16.8 µM,6.83 µM,–,–,–,–,–,–,–
COc1ccc2c(c1)SCc1cnc(Nc3cccc(Cl)c3)nc1-2,11.2 µM,11.9 µM,8.25 µM,5.6 µM,–,–,–,–,–,–,–
COc1cccc(Nc2ncc3c(n2)-c2ccc(OC)cc2SC3)c1,2.49 µM,2.8 µM,2.1 µM,2.57 µM,–,–,–,–,–,–,–
COc1cccc(Nc2ncc3c(n2)-c2ccccc2SC3)c1,0.8 µM,6.03 µM,9.43 µM,0.8 µM,–,–,–,–,–,–,–
COc1ccc2c(c1)SCc1cnc(Nc3ccc(OC)c(OC)c3)nc1-2,10.8 µM,18.8 µM,6.06 µM,> 20 µM,–,–,–,–,–,–,–
Brc1cccc(Nc2ncc3c(n2)-c2ccccc2SC3)c1,7 µM,> 20 µM,10.6 µM,7.67 µM,–,–,–,–,–,–,–
COc1cc(Nc2ncc3c(n2)-c2ccccc2SC3)cc(OC)c1OC,1.99 µM,1.26 µM,1.92 µM,1.08 µM,–,–,–,–,–,–,–
Fc1cccc(Nc2ncc3c(n2)-c2ccc(Cl)cc2SC3)c1,18.2 µM,20 µM,18.2 µM,> 20 µM,–,–,–,–,–,–,–
FC(F)(F)c1cccc(Nc2ncc3c(n2)-c2ccccc2SC3)c1,5.02 µM,> 20 µM,13.5 µM,11.8 µM,–,–,–,–,–,–,–
Cc1cc(C)c(/C=C2\C(=O)Nc3ccccc32)[nH]1 [SEMAXANIB],–,38 µM,37 µM,27 µM,–,–,–,–,–,–,–
COc1cc(Nc2ncc3c(n2)-c2ccc(Cl)cc2SC3)cc(OC)c1OC,2.54 µM,3.46 µM,4.27 µM,3.4 µM,–,–,–,–,–,–,–
COc1ccc2c(c1)SCc1cnc(Nc3cccc(Br)c3)nc1-2,1.89 µM,2.93 µM,4.77 µM,2.2 µM,–,–,–,–,–,–,–
